Laboratory results: publication PMC6026317, “Molecular elements in FGF19 and FGF21 defining KLB/FGFR activity and specificity” (Molecular Metabolism, 2018)
Blank lines part the entries; values can stand above or below the substance they belong to. Ends that are not written are not given here.

Columns and labels:
human FGFR1c/KLB = target: T1, human FGFR1c/KLB (Homo sapiens, UniProt P11362+Q86Z14); experiment: AlphaScreen cell-free binding assay, displacement of biotinylated FGF21; settings: peptides compete with FGF21 for human FGFR1/KLB complex, mean, n = 2, NC = Not Calculated due to negligible activity at the tested concentrations
T1 construct: while adding human soluble KLB generated a signal; purchased R&D Systems
T1 sequence (Q86Z14 1-996 limits assumed): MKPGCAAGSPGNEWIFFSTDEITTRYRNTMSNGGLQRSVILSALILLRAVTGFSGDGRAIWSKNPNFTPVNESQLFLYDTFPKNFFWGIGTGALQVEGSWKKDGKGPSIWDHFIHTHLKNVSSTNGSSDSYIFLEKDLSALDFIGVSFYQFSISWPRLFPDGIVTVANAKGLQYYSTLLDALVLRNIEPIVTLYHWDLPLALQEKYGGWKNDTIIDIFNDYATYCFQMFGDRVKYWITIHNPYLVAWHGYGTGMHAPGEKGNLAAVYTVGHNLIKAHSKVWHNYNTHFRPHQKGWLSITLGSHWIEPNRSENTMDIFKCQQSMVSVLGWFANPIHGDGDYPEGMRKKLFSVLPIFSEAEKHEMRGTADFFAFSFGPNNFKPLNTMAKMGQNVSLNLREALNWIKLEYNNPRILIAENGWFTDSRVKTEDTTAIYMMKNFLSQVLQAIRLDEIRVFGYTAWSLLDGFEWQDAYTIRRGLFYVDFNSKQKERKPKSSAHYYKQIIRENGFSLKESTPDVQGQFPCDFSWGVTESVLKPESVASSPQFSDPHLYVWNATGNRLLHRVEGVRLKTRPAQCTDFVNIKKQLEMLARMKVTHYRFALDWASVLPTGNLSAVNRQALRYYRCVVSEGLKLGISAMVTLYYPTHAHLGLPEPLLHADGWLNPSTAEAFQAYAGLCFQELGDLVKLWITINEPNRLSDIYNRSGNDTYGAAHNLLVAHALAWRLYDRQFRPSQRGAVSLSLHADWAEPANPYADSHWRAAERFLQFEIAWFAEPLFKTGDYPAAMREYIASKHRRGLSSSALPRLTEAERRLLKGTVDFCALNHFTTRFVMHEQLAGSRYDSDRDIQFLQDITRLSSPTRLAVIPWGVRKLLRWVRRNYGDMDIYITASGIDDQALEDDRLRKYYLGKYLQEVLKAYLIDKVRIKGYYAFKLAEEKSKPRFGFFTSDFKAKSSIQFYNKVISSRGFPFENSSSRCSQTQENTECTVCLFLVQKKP
T1 sequence (P11362 22-376 partner limits assumed): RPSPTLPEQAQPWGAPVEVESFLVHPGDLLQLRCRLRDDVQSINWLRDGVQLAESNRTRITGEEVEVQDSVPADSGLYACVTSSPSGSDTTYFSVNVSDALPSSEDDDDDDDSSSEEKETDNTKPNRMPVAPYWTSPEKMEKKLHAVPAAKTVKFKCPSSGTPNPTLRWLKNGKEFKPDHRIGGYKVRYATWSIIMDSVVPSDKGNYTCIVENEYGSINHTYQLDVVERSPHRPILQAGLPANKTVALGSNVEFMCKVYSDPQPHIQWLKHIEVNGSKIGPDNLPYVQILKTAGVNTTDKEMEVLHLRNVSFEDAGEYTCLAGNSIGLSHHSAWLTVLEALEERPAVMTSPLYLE
Procedure: Biotinylated FGF21 was coupled to Streptavidin-coated donor beads (AlphaScreen technology, Perkin Elmer), and the ectodomains of human FGFR4 fused to Fc (R&D Systems) or FGFR1c fused to Fc (R&D Systems) were coupled to Protein A acceptor beads (AlphaScreen technology, Perkin Elmer). Human KLB protein (R&D Systems) was added to the mixture of biotinylated-FGF21-Streptavidin donor beads and FGFR-Fc-Protein A acceptor beads, bringing the beads in close proximity producing a signal, in the presence of 5 μg/ml Heparin and 0.1% BSA. Increasing doses of FGF21 C-terminal peptides were added and if their binding to the receptor complex were to take place, the biotinylated FGF21 would be displaced to consequently decrease the signal. The EnVision Multilabel Plate Reader (Perkin Elmer) was used to quantify the emitted light signal at 570 nm.
Supplementary file mmc1.pdf: Multimedia component 1 Table S1. Nomenclature for FGF protein and C-terminal peptide analogs. Table S2. Receptor binding of C-terminal FGF21 Ala-scan peptides. IC50 values (μM, mean, n = 2) with fold-change for 21C25 Ala-scan peptides versus native peptide in a cell free AlphaScreen binding assay where the 21C25 Ala peptides competed with FGF21 to associate with the human FGFR1/KLB complex. NC denotes where IC50 values were Not Calculated due to negligible activity at the tested concentrations.

[1] = test system: FGF21-induced ERK phosphorylation in human KLB overexpressing 293T HEK cells (293/KLB); experiment: Peptide antagonism of FGF21-induced pERK, AlphaLISA; format: cell-based; settings: 293/KLB cells; fixed dose of FGF21, 10 min at 37° C; n = 3
Procedure: (§1) 293T HEK cells expressing KLB (or KL) or Hep3B cells were plated to 5–6 x 10^4 cells/well density in 96-well cell culture plate coated with poly-D-Lysine (Corning). The cells were serum starved for four hours in 0.1% BSA fraction V (ThermoFisher) containing media prior to treatment with protein and/or an antagonist peptide at the mentioned concentrations for 10 min at 37° C. For the antagonist assays, a chosen fixed dose within the range of 0.8–30 nM (depending on the cell type) of FGF21 or FGF19 stimulant was added to all the wells. BaF3 cells expressing human KLB/FGFR1c or human KLB/FGFR4-1c chimera were seeded at 5 × 10^5 cells/well density in 96-well cell culture plate and serum-starved overnight. FGF21/19 analogs were diluted in 0.02% Tween-20 containing RPMI1640 medium and the cells were treated for 15 min at 37° C. Following the respective cell treatments, the cells were lysed (with lysis buffer provided in the kit) for 10 min at room temperature on a shaker and the lysate was mixed with reaction mixture (consisting of reaction buffer, activation buffer, acceptor and donor beads provided in the kit). Phosphorylated ERK1/2 (pERK) levels were subsequently recorded by EnSpire Alpha or Envision Multilabel plate reader (Perkin Elmer). The cell assays corresponding to 293/KLB or Hep3B cells were carried out with AlphaLISA SureFire Ultra pERK1/2 (Thr 202/Tyr204) kit (Perkin Elmer), and BaF3 cells were done using AlphaScreen pERK1/2 (Thr202/Tyr204) kit (Perkin Elmer).
All cellular phosphorylation data were analyzed using 3-parameter non-linear regression curve in GraphPad Prism 7. Graphs are represented as relative maximal (100%) response of the positive control. All other test analog signals were adjusted accordingly as % values. For antagonistic assays, the difference between the p-ERK signal at baseline (fixed dose of FGF-stimulation, no antagonist peptide added) and the highest dose of the positive control, either FGF21^18−181, 21C25 or 19C26 for respective assay, was set to 100%. Similarly, for an agonist assay, the difference between the p-ERK signal of baseline (only cell culture medium, no agonist) and the highest dose of the positive control either FGF21 in 293/KLB cells or FGF19 in Hep3B cells was used to establish 100% response. Each peptide and protein analog was tested in triplicates in three independent experiments (n = 3), and normalized graphs plotted are expressed as mean ± SD unless otherwise noted.
The C-terminal region of FGF21 binds to KLB as previously implied by FGF21^18−181 antagonism. […] For comparative purposes, we utilized an in vitro assay in which we monitored dose-dependent attenuation of FGF-induced ERK phosphorylation in human KLB overexpressing 293T HEK cells (293/KLB).

[2] = test system: FGF19 signaling in 293/KLB cells; experiment: Peptide antagonism of FGF19-induced pERK, AlphaLISA; format: cell-based, human; settings: fixed dose of FGF19, 10 min at 37° C, n = 3
Procedure: as §1, with “Following the respective cell treatments, the cells were lysed (with lysis buffer provided in the kit) for 10 min at room temperature on a shaker and the lysate was mixed with reaction mixture (consisting of reaction buffer, activation buffer, acceptor and donor beads provided in the kit).” left out, “The cell assays corresponding to 293/KLB or Hep3B cells were carried out with AlphaLISA SureFire Ultra pERK1/2 (Thr 202/Tyr204) kit (Perkin Elmer), and BaF3 cells were done using AlphaScreen pERK1/2 (Thr202/Tyr204) kit (Perkin Elmer).” left out
(§2) All cellular phosphorylation data were analyzed using 3-parameter non-linear regression curve in GraphPad Prism 7. […] Each peptide and protein analog was tested in triplicates in three independent experiments (n = 3), and normalized graphs plotted are expressed as mean ± SD unless otherwise noted.

lean (C57BL/6J) mice = experiment: In vivo peptide antagonism study, cFos and EGR1 mRNA in pancreas and eWAT; design: species or system mouse; settings: WAT and pancreas
Excerpt: All animal studies were approved by and performed according to the guidelines of the Institutional Animal Care and Use Committee of the University of Cincinnati (Cincinnati, USA). Eight-week old male C57BL/6J mice (Jackson Laboratories) were given ad libitum access to either a chow diet (lean mice), or a high-fat high-sugar diet (HFD, DIO mice) containing 58% kcal from fat (Research Diets, catalog# D12331). For DIO mice, animals were maintained on the HFD for a minimum of 3 months prior to initiation of the pharmacological studies. The mice were maintained at 22 °C on a 12-h light–dark cycle with free access to water. Before the beginning of the studies, mice were randomized into treatment groups according to body weight. All injections and tests were performed during the light cycle with a group size of n = 8.
Mice were administered vehicle, FGF21 (1 mg/kg), or FGF19 (1 mg/kg) alone or in combination with 19C26,A^26 (30 mg/kg), (dosed 15 min prior to FGF21 or FGF19 administration) via sc injections. One-hour post FGF21 or FGF19 dosing, the mice were sacrificed and their plasma, pancreas, and epididymal white adipose tissue (eWAT) were harvested for analyses. Total RNA was isolated from pancreatic and eWAT tissues using Trizol phenol-chloroform extraction (Invitrogen, Cat#155596026) and purified using an RNeasy mini (Cat#74104) and on-column DNAse digest (Cat#79254) kits (Qiagen). Following reverse transcription, levels of cFos and early growth response-1 (EGR1) mRNA levels were subsequently probed by quantitative PCR (ThermoFisher) and analyzed by ΔΔCT method.
Statistical analyses for in vivo experiments were performed on data using a one- (Figure 5A,B and 5D) or two-way (Figure 5C) ANOVA followed by Tukey post hoc multiple comparison analysis. All results are presented as mean ± SEM, n = 5–8, and P < 0.05 was considered significant. Group size estimations were based upon a power calculation to minimally yield an 80% chance to detect a significant difference in body weight of P < 0.05.

293/KLB cells = experiment: Agonist pERK AlphaLISA assay in 293/KLB cells; format: cell-based, human; settings: 10 min at 37° C, n = 3
Procedure: as §1
as §2, with “7. Graphs are represented as relative maximal (100%) response of the positive control. All other test analog signals were adjusted accordingly as % values.” for “7.”

[3] = test system: FGF19 signaling in Hep3B cells; experiment: Peptide antagonism of FGF19 signaling in Hep3B cells; format: cell-based, human; settings: n = 3
Procedure: as §1, with “Following the respective cell treatments, the cells were lysed (with lysis buffer provided in the kit) for 10 min at room temperature on a shaker and the lysate was mixed with reaction mixture (consisting of reaction buffer, activation buffer, acceptor and donor beads provided in the kit).” left out, “The cell assays corresponding to 293/KLB or Hep3B cells were carried out with AlphaLISA SureFire Ultra pERK1/2 (Thr 202/Tyr204) kit (Perkin Elmer), and BaF3 cells were done using AlphaScreen pERK1/2 (Thr202/Tyr204) kit (Perkin Elmer).” left out
as §2

[4] = test system: signaling of FGF1 in 293/KLB cells; experiment: Peptide antagonism of FGF1 signaling in 293/KLB cells; format: cell-based, human; settings: data not shown
[5] = test system: signaling of FGF23 in 293/KL cells overexpressing human Klotho; experiment: Peptide antagonism of FGF23 signaling in 293/KL cells; format: cell-based; settings: data not shown

- IC50 (human FGFR1c/KLB): 150 nM
Substance: PPDVGSSDPLSMVGPSQARSPSYAS-NH2 [174 G]

Substance: 19C26,A^26: 19C26 with alanine substitution of the terminal lysine; most potent peptide antagonist (PLETDSMDPFGLVTGLEAVRSPSFEA-NH2)
- Antagonism of FGF21 signaling (pERK), in words [1]: at least twenty-fold greater potency
- Antagonism of FGF19 signaling (pERK), in words [2]: at least twenty-fold greater potency
- cFos and EGR1 mRNA levels, peptide antagonist alone (lean (C57BL/6J) mice; 30 mg/kg sc): no effect on cFos and EGR1 mRNA levels
- Block of FGF19- or FGF21-stimulated cFos and EGR1 gene induction (lean (C57BL/6J) mice; antagonist 30 mg/kg sc 15 min before FGF19 or FGF21 1 mg/kg sc, one hour post dosing): completely eliminated the ability of FGF19 or FGF21 to stimulate gene induction

Substance: 19C25: FGF19-based C-terminal peptide of 25 amino acids (LETDSMDPFGLVTGLEAVRSPSFEK-NH2)
- Antagonism of FGF21 signaling (pERK), in words [1]: comparable to FGF21^18−181 in their antagonistic effect

Substance: FGF19: Human FGF19 (#O95750: 23–216, designated 1–194)
- pERK agonist activity, in words (293/KLB cells): nanomolar potencies
- cFos and EGR1 transcriptional activity, FGF alone (lean (C57BL/6J) mice; 1 mg/kg sc, one hour): induced robust transcriptional activity in each tissue

- IC50 (human FGFR1c/KLB): 150 nM
Substance: PPDVGSSDPLSMVGPSQGRSPSYAS-NH2 [21C25]

- IC50 (human FGFR1c/KLB): 50 nM
Substance: PPDVGSSDPLSMVGPSQGASPSYAS-NH2 [175 R]

Substance: FGF2
- pERK agonist activity, in words (293/KLB cells): picomolar activities

- IC50 (human FGFR1c/KLB): 50 nM
Substance: PPDVGSSDPLSMVGPSQGRSPSYAA-NH2 [181 S]

Substance: 21C22: C-terminal FGF21 peptide of 22 residues (VGSSDPLSMVGPSQGRSPSYAS-NH2; UniProt Q9NSA1 188-209, looked up, fragment)
- Antagonism of FGF21 signaling (pERK), in words [1]: had no effect within the dose range examined

Substance: 19C26: FGF19-based C-terminal peptide of 26 amino acids (169-194), C-terminal amide (PLETDSMDPFGLVTGLEAVRSPSFEK-NH2)
- Antagonism of FGF21 signaling (pERK), in words [1]: comparable to FGF21^18−181 in their antagonistic effect
- Antagonism of FGF19 signaling (pERK), in words [2]: blocked FGF19 activity comparably to that of FGF21
- Antagonism of FGF19 signaling (pERK), in words [3]: blocked FGF19 activity comparably to that of FGF21
- Attenuation of FGF1 signaling, in words [4]: unable to attenuate signaling of FGF1
- Attenuation of FGF23 signaling, in words [5]: unable to attenuate signaling
